This is an account of results in ChEMBL document CHEMBL5113549, “Binding versus Enzymatic Processing of ε-Trimethyllysine Dioxygenase Substrate Analogues” (ACS Med Chem Lett, 2022).

For orientation: Kd means the constant that tells how readily two partners part at equilibrium.

For experiment [1], the species on record is Homo sapiens. The experiment in a line: Substrate activity at human recombinant MBP-TMLD (42 to 421 residues) fusion protein expressed in Escherichia coli BL21-AI assessed as ratio of succinate to hydroxylated substrate formation at 500 uM in presence of alpha-ketoglutarate by proton 1D NMR spectroscopy.
The species named for experiment [2] is Homo sapiens. Kind of experiment: Substrate activity at human recombinant MBP-TMLD (42 to 421 residues) fusion protein expressed in Escherichia coli BL21-AI assessed as hydroxylated substrate formation at 500 uM in presence of alpha-ketoglutarate by proton 1D NMR spectroscopy.
Experiment [3] is filed under the species Homo sapiens. The experiment in a line: Binding affinity to human recombinant MBP-TMLD (42 to 421 residues) fusion protein expressed in Escherichia coli BL21-AI assessed as change in enthalpy by isothermal titration calorimetry. (Isothermal titration calorimetry measures the heat released or taken up as one component is titrated into another.)
For experiment [4], the species on record is Homo sapiens. Kind of experiment: Binding affinity to human recombinant MBP-TMLD (42 to 421 residues) fusion protein expressed in Escherichia coli BL21-AI assessed as change in Gibbs free energy by isothermal titration calorimetry.
The nature of experiment [5]: Binding affinity to human recombinant MBP-TMLD (42 to 421 residues) fusion protein expressed in Escherichia coli BL21-AI by isothermal titration calorimetry.
For experiment [6], the species on record is Homo sapiens. Kind of experiment: Binding affinity to human recombinant MBP-TMLD (42 to 421 residues) fusion protein expressed in Escherichia coli BL21-AI assessed as change in entropy by isothermal titration calorimetry.
Experiment [7] is filed under the species Homo sapiens. Kind of experiment: Binding affinity to human recombinant MBP-TMLD (42 to 421 residues) fusion protein expressed in Escherichia coli BL21-AI assessed as heat release at 300 uM in presence of co-factor OGA and Co2+ by isothermal titration calorimetry.
For experiment [8], the species on record is Homo sapiens. Kind of experiment: Binding affinity to human recombinant MBP-TMLD (42 to 421 residues) fusion protein expressed in Escherichia coli BL21-AI assessed as heat release at 300 uM in presence of co-factor alpha-ketoglutarate and Zn2+ by isothermal titration calorimetry.
Experiment [9] is filed under the species Homo sapiens. Kind of experiment: Binding affinity to human recombinant MBP-TMLD (42 to 421 residues) fusion protein expressed in Escherichia coli BL21-AI in presence of 1.18 to 2 fold excess of co-factor Zn2+/OGA by isothermal titration calorimetry.
The species named for experiment [10] is Homo sapiens. Kind of experiment: Binding affinity to human recombinant MBP-TMLD (42 to 421 residues) fusion protein expressed in Escherichia coli BL21-AI assessed as heat release at 300 uM in presence of co-factor OGA and Zn2+ by isothermal titration calorimetry.

The source made the active and inactive calls. The rule behind the calls is not given here.

In the case of `C[N+](C)(C)CCC[C@H](N)C(=O)O`, the Ratio in the experiment filed under Homo sapiens [1] came out at 3.1. In addition, the Activity in the experiment filed under Homo sapiens [2] came to 28%. Besides, the deltaH in the experiment listed under Homo sapiens [3] is -4.5 kcal/mol. Also, in the experiment filed under Homo sapiens [4], the deltaG was -6.9 kcal/mol. In addition, the Kd in experiment [5] stood at 7.6 µM. Further, the -TdeltaS in the experiment listed under Homo sapiens [6] is -2.5 kcal/mol.
Consider `CC[N+](C)(C)CCCC[C@H](N)C(=O)O`, for which the Ratio in the experiment listed under Homo sapiens [1] was 2.1. In addition, in the experiment listed under Homo sapiens [2], the Activity is 83%. Further, in the experiment listed under Homo sapiens [3], the deltaH is -6.37 kcal/mol. The deltaG in the experiment filed under Homo sapiens [4] is -7.12 kcal/mol. Further, the Kd in experiment [5] was found to be 6 µM. In the experiment listed under Homo sapiens [6], the -TdeltaS is -0.75 kcal/mol.
With `C[N+](C)(C)CCCCC[C@H](N)C(=O)O`, the Ratio in the experiment listed under Homo sapiens [1] is 2.9. The Activity in the experiment filed under Homo sapiens [2] worked out at 30%. The deltaH in the experiment filed under Homo sapiens [3] is -1.4 kcal/mol. Moreover, the deltaG in the experiment listed under Homo sapiens [4] is -6.28 kcal/mol. For the same molecule, the Kd in [5] is 25 µM. Also, the -TdeltaS in the experiment filed under Homo sapiens [6] was -4.9 kcal/mol.
For the molecule `C[N+](C)(C)CCCC[C@H](N)C(=O)O`, the result in the experiment filed under Homo sapiens [7], in the experiment listed under Homo sapiens [8], in the experiment filed under Homo sapiens [9] and in the experiment filed under Homo sapiens [10] was Active. The Ratio in the experiment filed under Homo sapiens [1] is 1.3. For the same molecule, the Activity in the experiment listed under Homo sapiens [2] was determined as 97%. Further, the deltaH in the experiment filed under Homo sapiens [3] is -5.48 kcal/mol. Also, the deltaG in the experiment listed under Homo sapiens [4] is -7.15 kcal/mol. The Kd in [5] was determined as 5.78 µM. Besides, in the experiment filed under Homo sapiens [6], the -TdeltaS is -1.66 kcal/mol.
Regarding `CC(C)C(=O)N[C@@H](CCCC[N+](C)(C)C)C(=O)[O-]`, the Ratio in the experiment listed under Homo sapiens [1] was 3.9. Moreover, in the experiment filed under Homo sapiens [2], the Activity was determined as 12%.
As for `CCCC[N+](C)(C)CCCC[C@H](N)C(=O)[O-]`, the Ratio in the experiment listed under Homo sapiens [1] stood at 2.4. Besides, the Activity in the experiment filed under Homo sapiens [2] stood at 39%. Further, in the experiment filed under Homo sapiens [3], the deltaH is -0.6 kcal/mol. The deltaG in the experiment filed under Homo sapiens [4] is -6.52 kcal/mol. In experiment [5], the Kd was found to be 16.4 µM. Also, the -TdeltaS in the experiment listed under Homo sapiens [6] was -5.9 kcal/mol.
Take `CC(C)[N+](C)(C)CCCC[C@H](N)C(=O)O`: the Ratio in the experiment filed under Homo sapiens [1] turned out to be 2.4. Moreover, the Activity in the experiment filed under Homo sapiens [2] worked out at 51%. Moreover, in the experiment filed under Homo sapiens [3], the deltaH is -5.6 kcal/mol. Further, the deltaG in the experiment filed under Homo sapiens [4] was -6.75 kcal/mol. In addition, the dissociation constant Kd in [5] was found to be 11.3 µM. Besides, the -TdeltaS in the experiment listed under Homo sapiens [6] is -1.2 kcal/mol.
For the molecule `CCC[N+](C)(C)CCCC[C@H](N)C(=O)O`, the Ratio in the experiment filed under Homo sapiens [1] came to 3.4. Further, in the experiment listed under Homo sapiens [2], the Activity is 25%. Moreover, the deltaH in the experiment listed under Homo sapiens [3] is -1.4 kcal/mol. In the experiment filed under Homo sapiens [4], the deltaG is -6.9 kcal/mol. For the same molecule, the dissociation constant (Kd) in experiment [5] was 9.2 µM. Further, the -TdeltaS in the experiment listed under Homo sapiens [6] is -5.5 kcal/mol.
